# How the values were obtained:
# NB-4 = assay: Cell viability (CellTiter-Glo); format: cell-based, Human; details: Homo sapiens, NB-4, 72 h, read-out: NB-4 Viability 72 h IC50
# Description: The compound 18a was tested in 16 different cell lines. For 6-day compound treatment 1700 cells per well were plated in a 384-well plate (Corning #781098) and incubated overnight at 37° C./5% CO2. […] Afterwards, 20 μL CellTiter-Glo reagent (Promega, #G7570) was added to each well outside of the incubator and the plates were read for luminescence on a Spark® multimode microplate reader (Tecan). Data was fit in GraphPad Prism 8 to a nonlinear regression curve to determine the IC50 of the compounds. […]
# MOLM 13 = assay: Cell viability (CellTiter-Glo), 6-day compound treatment; format: cell-based, Human; details: Homo sapiens, MOLM-13, 144 h, read-out: MOLM 13 Viability 6 d IC50
# Description: The compound 18a was tested in 16 different cell lines. For 6-day compound treatment 1700 cells per well were plated in a 384-well plate (Corning #781098) and incubated overnight at 37° C./5% CO2. The following day, compounds in 10-fold dilutions were added to the plates and the plates were incubated for 6 days. Afterwards, 20 μL CellTiter-Glo reagent (Promega, #G7570) was added to each well outside of the incubator and the plates were read for luminescence on a Spark® multimode microplate reader (Tecan). Data was fit in GraphPad Prism 8 to a nonlinear regression curve to determine the IC50 of the compounds. […]
# SKOV-3 = assay: Cell viability (CellTiter-Glo), 48 hrs; format: cell-based; details: Homo sapiens, SK-OV-3, 48 h, read-out: SKOV-3 Viability 48 h IC50
# Description: One thousand seven hundred cells per well were plated in a 384 well plate and incubated overnight at 37° C./5% CO2. The following day, compounds in 10-fold dilutions were added to the plates and the plates returned to the incubator for 48 hrs. 48 hrs later, plates were removed to the bench and 20 μL CellTiter-Glo reagent was added to each well and the plates were read for luminescence on a Spark® multimode microplate reader (Tecan). Data were fit using PRISM to a nonlinear regression curve to determine the IC50 of the compounds.
# BIR3 domain of cIAP1 = BIR3 domain of cIAP1 (Homo sapiens, UniProt Q13490); assay: Fluorescence polarization assay; format: binding; details: SMAC-FITC probe, Ki calculated from IC50
# BIR3 domain of cIAP1, sequence (Q13490 253-363 limits assumed): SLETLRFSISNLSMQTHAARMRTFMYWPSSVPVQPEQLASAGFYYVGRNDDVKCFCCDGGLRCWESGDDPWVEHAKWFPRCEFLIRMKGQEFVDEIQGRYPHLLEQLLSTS
# Description: Binding of compounds to ML-IAP and BIR3 domain of cIAP1, cIAP2 and XIAP was determined by fluorescence polarization. Assay buffer was 100 mM KH2PO4 at pH 7.5, 50 μM ZnSO4, 1 mM TCEP (Tris(2-carboxyethyl)phosphine hydrochloride) and 50 nM SMAC-FITC probe (AbuRPF-K(5-Fam)-NH2) as described by Z. Nikolovska-Coleska et al.^9. cIAP1 and XIAP were present at 800 nM while cIAP2 and MLIAP were present at 1.5 μM. Compounds in 3-fold dilutions were added to the plates ranging from 30 μM to 1.5 nM. Assays were run in 384-well black plates read (Greiner Bio-One #784076) in an Analyst in fluorescence polarization mode with excitation at 485 nm and emission at 535 nm. Data was fit to a nonlinear regression curve in GraphPad Prism 8 to determine the IC50 values of the compounds. Ki's were then calculated from the IC50 values using equation: Ki=[I]50/([L]50/Kd+[P]0/Kd+1) formulated by Z. Nikolovska-Coleska et al.
# [1] = system: latently infected cell line Jurkat 2D10; assay: HIV Jurkat 2D10 cells GFP+ assay (reversal of HIV latency); format: cell-based; details: Homo sapiens, Jurkat, 48 h, read-out: Jurkat 2D10 GFP+ EC50
# Description: Several compounds (Table 5) were tested for their efficacy in the reversal of HIV latency in the latently infected cell line Jurkat 2D10. Jurkat 2D10 cells were treated with different doses of the compounds, or one of the following compounds: BV-6, SM-164, Birinapant, LCL-161, GDC-0152, AT-406 for 48 hours. Reversal of HW latency was evaluated by analyzing GFP expression using flow cytometry. Induction of GFP expression was compared to baseline GFP levels detected in the absence of treatment.
SMILES,IC50 (NB-4) [µM],IC50 (MOLM 13) [µM],IC50 (SKOV-3) [µM],Ki (BIR3 domain of cIAP1) [µM],EC50 [1] [µM]
CN[C@@H](C)C(=O)N[C@H]1CCS[C@H]2CC(C)(C)[C@@H](C(=O)N[C@H]3c4ccccc4C[C@H]3OCC#Cc3cccc(C#CCO[C@@H]4Cc5ccccc5[C@@H]4NC(=O)[C@H]4N5C(=O)[C@@H](NC(=O)[C@H](C)NC)CCS[C@H]5CC4(C)C)c3)N2C1=O [Compound 18d],< 0.01,0.1 to 1,< 0.01,≤ 0.05,< 0.001
"CN[C@@H](C)C(=O)N[C@H]1CCS[C@H]2CC(C)(C)[C@@H](C(=O)N[C@H]3c4ccccc4C[C@H]3OCc3ccc(-c4ccc(CO[C@@H]5Cc6ccccc6[C@@H]5NC(=O)[C@H]5N6C(=O)[C@@H](NC(=O)[C@H](C)NC)CCS[C@H]6CC5(C)C)cc4)cc3)N2C1=O [Compound 18f, (2S)-1-{[(4S,7S,9aS)-7-{[(1S,2R)-2-({4-[4-({[(1S,2R)-1-({[(4S,7S,9aS)-8,8-Dimethyl-4-{[(2S)-2-(methylammonio)propanoyl]amino}-5-oxooctahydropyrrolo[2,1-b][1,3]thiazepin-7-yl]carbonyl}amino)-2,3-dihydro-1H-inden-2-yl]oxy}methyl)phenyl]benzyl}oxy)-2,3-dihydro-1H-inden-1-yl]carbamoyl}-8,8-dimethyl-5-oxooctahydropyrrolo[2,1-b][1,3]thiazepin-4-yl]amino}-N-methyl-1-oxopropan-2-ammonium dichloride]",< 0.01,0.1 to 1,< 0.01,0.05 to 0.1,0.001 to 0.01
"CN[C@@H](C)C(=O)N[C@H]1CCS[C@H]2CC(C)(C)[C@@H](C(=O)N[C@H]3c4ccccc4C[C@H]3OCCS(=O)(=O)CCO[C@@H]3Cc4ccccc4[C@@H]3NC(=O)[C@H]3N4C(=O)[C@@H](NC(=O)[C@H](C)NC)CCS[C@H]4CC3(C)C)N2C1=O [Compound 18h, (2S)-1-{[(4S,7S,9aS)-7-{[(1S,2R)-2-{2-[(2-{[(1S,2R)-1-({[(4S,7S,9aS)-8,8-Dimethyl-4-{[(2S)-2-(methylammonio)propanoyl]amino}-5-oxooctahydropyrrolo[2,1-b][1,3]thiazepin-7-yl]carbonyl}amino)-2,3-dihydro-1H-inden-2-yl]oxy}ethyl)sulfonyl]ethoxy}-2,3-dihydro-1H-inden-1-yl]carbamoyl}-8,8-dimethyl-5-oxooctahydropyrrolo[2,1-b][1,3]thiazepin-4-yl]amino}-N-methyl-1-oxopropan-2-ammonium dichloride]",< 0.01,,0.01 to 0.1,≤ 0.05,0.01 to 0.1
CN[C@@H](C)C(=O)N[C@H]1CCS[C@H]2CC(C)(C)[C@@H](C(=O)N[C@H]3c4ccccc4C[C@H]3OCC#CCO[C@@H]3Cc4ccccc4[C@@H]3NC(=O)[C@H]3N4C(=O)[C@@H](NC(=O)[C@H](C)NC)CCS[C@H]4CC3(C)C)N2C1=O [Compound 18j],< 0.01,1 to 10,0.01 to 0.1,≤ 0.05,1 to 10
"CNC(C)(C)C(=O)N[C@H]1CCS[C@H]2CC(C)(C)[C@@H](C(=O)N[C@H]3c4ccccc4C[C@H]3OCC#CC#CCO[C@@H]3Cc4ccccc4[C@@H]3NC(=O)[C@H]3N4C(=O)[C@@H](NC(=O)C(C)(C)NC)CCS[C@H]4CC3(C)C)N2C1=O [Compound 18k, 1-{[(4S,7S,9aS)-7-({(1S,2R)-2-[(6-{[(1S,2R)-1-({[(4S,7S,9aS)-8,8-Dimethyl-4-{[2-methyl-2-(methylammonio)propanoyl]amino}-5-oxooctahydropyrrolo[2,1-b][1,3]thiazepin-7-yl]carbonyl}amino)-2,3-dihydro-1H-inden-2-yl]oxy}hexa-2,4-diyn-1-yl)oxy]-2,3-dihydro-1H-inden-1-yl}carbamoyl)-8,8-dimethyl-5-oxooctahydropyrrolo[2,1-b][1,3]thiazepin-4-yl]amino}-N,2-dimethyl-1-oxopropan-2-ammonium dichloride]",0.01 to 0.1,1 to 10,0.1 to 1,0.05 to 0.1,> 10
"CN[C@@H](C)C(=O)N[C@H]1CCS[C@H]2CC(C)(C)[C@@H](C(=O)N[C@H](CCC(=O)NCCNC(=O)CC[C@@H](NC(=O)[C@H]3N4C(=O)[C@@H](NC(=O)[C@H](C)NC)CCS[C@H]4CC3(C)C)c3ccccc3)c3ccccc3)N2C1=O [Compound 18l, (2S)-1-{[(4S,7S,9aS)-74{(1R)-4-[(2-{[(4R)-4-({[(4S,7S,9aS)-8,8-Dimethyl-4-{[(2S)-2-(methylammonio)propanoyl]amino}-5-oxooctahydropyrrolo[2,1-b][1,3]thiazepin-7-yl]carbonyl}amino)-4-phenylbutanoyl]amino}ethyl)amino]-4-oxo-1-phenylbutyl}carbamoyl)-8,8-dimethyl-5-oxooctahydropyrrolo[2,1-b][1,3]thiazepin-4-yl]amino}-N-methyl-1-oxopropan-2-ammonium dichloride]",0.01 to 0.1,,0.1 to 1,≤ 0.05,0.1 to 1
"C=CCC1(CC=C)C[C@@H]2SCC[C@H](NC(=O)[C@H](C)NC)C(=O)N2[C@@H]1C(=O)N[C@H]1c2ccccc2C[C@H]1OCC#CC#CCO[C@@H]1Cc2ccccc2[C@@H]1NC(=O)[C@H]1N2C(=O)[C@@H](NC(=O)[C@H](C)NC)CCS[C@H]2CC1(CC=C)CC=C [Compound 18n, (2S)-2-{[(4S,7S,9aS)-7-{[(1S,2R)-2-[(6-{[(1S,2R)-1-[(4S,7S,9aS)-4-[(2S)-2-(Methylamino)propanamido]-5-oxo-8,8-bis(prop-2-en-1-yl)-octahydropyrrolo[2,1-b][1,3]thiazepine-7-amido]-2,3-dihydro-1H-inden-2-yl]oxy}hexa-2,4-diyn-1-yl)oxy]-2,3-dihydro-1H-inden-1-yl]carbamoyl}-5-oxo-8,8-bis(prop-2-en-1-yl)-octahydropyrrolo[2,1-b][1,3]thiazepin-4-yl]carbamoyl}-2-(methylazaniumyl)ethanide dichloride]",,0.1 to 1,0.01 to 0.1,0.05 to 0.1,0.01 to 0.1
"CN[C@@H](C)C(=O)N[C@H]1CCS[C@H]2C[C@H](O)[C@@H](C(=O)N[C@H]3c4ccccc4C[C@H]3OCC#CC#CCO[C@@H]3Cc4ccccc4[C@@H]3NC(=O)[C@@H]3[C@@H](O)C[C@@H]4SCC[C@H](NC(=O)[C@H](C)NC)C(=O)N43)N2C1=O [Compound 18p, [(1S)-1-{[(4S,7S,8S,9aS)-7-{[(1S,2R)-2-[(6-{[(1S,2R)-1-[(4S,7S,8S,9aS)-8-Hydroxy-4-[(2S)-2-(methylazaniumyl)propanamido]-5-oxo-octahydropyrrolo[2,1-b][1,3]thiazepine-7-amido]-2,3-dihydro-1H-inden-2-yl]oxy}hexa-2,4-diyn-1-yl)oxy]-2,3-dihydro-1H-inden-1-yl]carbamoyl}-8-hydroxy-5-oxo-octahydropyrrolo[2,1-b][1,3]thiazepin-4-yl]carbamoyl}ethyl](methyl)azanium dichloride]",,,,,0.1 to 1
CN[C@@H](C)C(=O)N[C@H]1CCS[C@H]2CC3(CCCC3)[C@@H](C(=O)N[C@H]3c4ccccc4C[C@H]3OCC#CC#CCO[C@@H]3Cc4ccccc4[C@@H]3NC(=O)[C@H]3N4C(=O)[C@@H](NC(=O)[C@H](C)NC)CCS[C@H]4CC34CCCC4)N2C1=O [Compound 18r],,,,,0.01 to 0.1

# Source: patent publication US12678509B2, “Inhibitor of apoptosis (IAP) protein antagonists” (Sanford Burnham Prebys Medical Discovery Institute, priority 2019, dated 2026)
